# Results reported in patent US11273124B2, “Antifungal nanoparticles for targeted treatment of fungal infections” (priority 2019, dated 2022).
# “Also recorded” adds a separate entry of the source. Numbered stars: 1 amine (or outer) side, 2 acyl side, 3 side chain; on linkers, the order of the positions; unused ones are H or OH. Bridge positions count the residues as written; N and C are the ends. Square brackets hold non-standard residues; d marks the D form. Peptide text beside a SMILES is read from it. * marks the point of attachment. pTerphenylCO(4''-OnC5H11) = CCCCCOc1ccc(-c2ccc(-c3ccc(C(=O)*)cc3)cc2)cc1; Orn(4R-OH,5R-OH) = O=C([C@H](C[C@@H](O)[C@@H](O)N[*:3])N[*:1])[*:2]; hTyr(3S-OH,4S-OH) = N[C@H](C(=O)O)[C@H](O)[C@@H](O)c1ccc(O)cc1; Pro(3S-OH,4S-Me) = C[C@H]1CN[C@H](C(=O)O)[C@H]1O; Hyp = O=C(O)[C@@H]1C[C@@H](O)CN1
# Experiments:
# [1] = tested on: Candida albicans 10231 biofilms; test: Pre-formed biofilm treatment assay (microscopy, CFU, metabolic activity); assay type: cell-based; details: liposomes at 1.25 mg/mL or equivalent free drug; twenty-four hours
# Source text: (a) A set of representative differential interference contrast microscopy images of Candida albicans 10231 biofilms after twenty-four hours of treatment with 1×, 5×, and 10× anidulafungin loaded liposomes or equivalent free drug. (b) A bar graph showing Candida albicans 10231 biofilm colony-forming units (CFU) twenty-four hours after treatment with 1×, 5×, and 10× anidulafungin loaded liposomes or equivalent free drug (**p<0.01, unpaired two-tailed t-test, n=4). (c) A bar graph showing relative metabolic activity of Candida albicans 10231 biofilm cells twenty-four hours after treatment with 1×, 5×, and 10× anidulafungin loaded liposomes or equivalent free drug (*p<0.05, **p<0.01, ***p<0.001, ****p<0.0001, one-way ANOVA with Tukey's post hoc analysis, n=4). […] of untreated cells are shown. Negative controls lacking fungi were included in each study.
# The inventors compared anidulafungin-loaded liposomes with AmBisome®, a commercially-available liposomal amphotericin B, for activity against Candida albicans 10231 biofilms. AmBisome® localizes to the fungal cell wall. See, Adler-Moore & Proffitt, Journal of Antimicrobial Chemotherapy, 49(1), 21-30 (2002) and Walker et al., mBio, 9(1), e02383-17 (2018). The anidulafungin-loaded liposomes performed as AmBisome®, reducing fungal burden by five-fold after only twenty-four hours. See, FIG. 4. […]
# [2] = cited from earlier work
# human cells = details: compared to many other antifungals; cited from earlier work
# Candida albicans = details: cited from earlier work
# Candida parapsilosis = details: cited from earlier work
structure (smiles),measurement,setting,value
"CCCCCOc1ccc(-c2ccc(-c3ccc(C(=O)N[C@H]4C[C@@H](O)[C@@H](O)NC(=O)[C@@H]5[C@@H](O)[C@@H](C)CN5C(=O)[C@H]([C@@H](C)O)NC(=O)[C@H]([C@H](O)[C@@H](O)c5ccc(O)cc5)NC(=O)[C@@H]5C[C@@H](O)CN5C(=O)[C@H]([C@@H](C)O)NC4=O)cc3)cc2)cc1 [Anidulafungin, 1-[(4R,5R) 4,5-dihydroxy-N2-[[4″-(pentyloxy)[1,1′:4′,1″-terphenyl]-4-yl]carbonyl]-L-ornithine] echinocandin B] ({pTerphenylCO(4''-OnC5H11)}-[Orn(4R-OH,5R-OH)]T[Hyp][hTyr(3S-OH,4S-OH)]T[Pro(3S-OH,4S-Me)]; lactam 1-C)",metabolic activity compared to untreated controls,[1],did not reduce metabolic activity
same,solubility in ethanol,[2]; ethanol,slightly soluble
same,solubility in water,[2]; water,practically insoluble; also recorded: not freely soluble
same,toxicity to human cells,human cells,reduced toxicity to human cells
same,minimum inhibitory concentration (MIC),Candida albicans,0.25 µg/mL
same,minimum inhibitory concentration (MIC),Candida parapsilosis,4 µg/mL
